This passage reports CC50 results from patent publication US20240018123A1, “COMPOUND FOR INHIBITING OR DISINTEGRATING ANDROGEN RECEPTOR, AND PHARMACEUTICAL USE THEREOF” (KOREA RESEARCH INSTITUTE OF CHEMICAL TECHNOLOGY, priority 2020, published 2024).

This data set concerns VCaP cells. Put plainly: Cytotoxicity assessment (Cell-titer-glo cell viability), VCaP. As to conditions: read-out: VCaP (CC50); VCaP cells, 6 days of treatment, Cell-titer-glo, vs DMSO.
On to `CC1(C)C(NC(=O)c2ccc(-n3cc(CCOCCOCCNC(=O)C4CN(c5ccc6nnn(C7CCC(=O)NC7=O)c(=O)c6c5)C4)nn3)cc2)C(C)(C)C1Oc1ccc(C#N)c(Cl)c1` (stereo not drawn) [Example 157, N-(2-(2-(2-(1-(4-(((1r,3r)-3-(3-chloro-4-cyanophenoxy)-2,2,4,4-tetramethylcyclobutyl)carbamoyl)phenyl)-1H-1,2,3-triazol-4-yl)ethoxy)ethoxy)ethyl)-1-(3-(2,6-dioxopiperidin-3-yl)-4-oxo-3,4-dihydrobenzo[d][1,2,3]triazin-6-yl)azetidine-3-carboxamide], for which the 50% cytotoxic concentration (CC50) came to 32.1 nM.

For the molecule `CC1(C)C(NC(=O)c2ccc(-c3cnn(C4CCN(CC5CCN(C(=O)C6CN(c7ccc8nnn(C9CCC(=O)NC9=O)c(=O)c8c7)C6)CC5)CC4)c3)nc2)C(C)(C)C1Oc1ccc(C#N)c(Cl)c1` (stereo not drawn) [Example 114, N-((1r,3r)-3-(3-chloro-4-cyanophenoxy)-2,2,4,4-tetramethylcyclobutyl)-6-(1-(1-((1-(1-(3-(2,6-dioxopiperidin-3-yl)-4-oxo-3,4-dihydrobenzo[d][1,2,3]triazin-6-yl)azetidine-3-carbonyl)piperidin-4-yl)methyl)piperidin-4-yl)-1H-pyrazol-4-yl)nicotinamide], the CC50 was 14 nM.

`CC1(C)C(NC(=O)c2ccc(C#CC3CCN(C(=O)C4CCN(c5ccc6nnn(C7CCC(=O)NC7=O)c(=O)c6c5)CC4)CC3)cc2)C(C)(C)C1Oc1ccc(C#N)c(Cl)c1` (stereo not drawn) [Example 141, N-((1r,3r)-3-(3-chloro-4-cyanophenoxy)-2,2,4,4-tetramethylcyclobutyl)-4-((1-(1-(3-(2,6-dioxopiperidin-3-yl)-4-oxo-3,4-dihydrobenzo[d][1,2,3]triazin-6-yl)piperidine-4-carbonyl)piperidin-4-yl)ethynyl)benzamide]: the CC50 came to 11.5 nM.

`CC1(C)C(NC(=O)c2ccc(N3CC4CN(C(=O)CNc5ccc6nnn(C7CCC(=O)NC7=O)c(=O)c6c5)CC4C3)cc2)C(C)(C)C1Oc1ccc(C#N)c(Cl)c1` (stereo not drawn) [Example 136, N-((1r,3r)-3-(3-chloro-4-cyanophenoxy)-2,2,4,4-tetramethylcyclobutyl)-4-(5-((3-(2,6-dioxopiperidin-3-yl)-4-oxo-3,4-dihydrobenzo[d][1,2,3]triazin-6-yl)glycyl)hexahydropyrrolo[3,4-c]pyrrol-2(1H)-yl)benzamide]: the CC50 amounted to 67.7 nM.

For `CC1(C)[C@H](NC(=O)c2ccc(N3CCN(CCCc4cn(-c5ccc6nnn(C7CCC(=O)NC7=O)c(=O)c6c5)nn4)CC3)cc2)C(C)(C)[C@H]1Oc1ccc(C#N)c(Cl)c1` (stereo partly drawn) [Example 134, N-((1r,3r)-3-(3-chloro-4-cyanophenoxy)-2,2,4,4-tetramethylcyclobutyl)-4-(4-(3-(1-(3-(2,6-dioxopiperidin-3-yl)-4-oxo-3,4-dihydrobenzo[d][1,2,3]triazin-6-yl)-1H-1,2,3-triazol-4-yl)propyl)piperazin-1-yl)benzamide], the CC50 worked out at 64.5 nM.

As to `CC1(C)C(NC(=O)c2ccc(C#CCC3CCN(CC4CCN(C(=O)COc5ccc6nnn(C7CCC(=O)NC7=O)c(=O)c6c5)CC4)CC3)cc2)C(C)(C)C1Oc1ccc(C#N)c(Cl)c1` (stereo not drawn) [Example 119, N-((1r,3r)-3-(3-chloro-4-cyanophenoxy)-2,2,4,4-tetramethylcyclobutyl)-4-(3-(1-((1-(2-((3-(2,6-dioxopiperidin-3-yl)-4-oxo-3,4-dihydrobenzo[d][1,2,3]triazin-6-yl)oxy)acetyl)piperidin-4-yl)methyl)piperidin-4-yl)prop-1-yn-1-yl)benzamide], the CC50 was 36 nM.

As to `CC1(C)C(NC(=O)c2ccc(-n3cc(CNC(=O)C4CCN(c5ccc6nnn(C7CCC(=O)NC7=O)c(=O)c6c5)CC4)nn3)cc2)C(C)(C)C1Oc1ccc(C#N)c(Cl)c1` (stereo not drawn) [Example 150, N-((1-(4-(((1r,3r)-3-(3-chloro-4-cyanophenoxy)-2,2,4,4-tetramethylcyclobutyl)carbamoyl)phenyl)-1H-1,2,3-triazol-4-yl)methyl)-1-(3-(2,6-dioxopiperidin-3-yl)-4-oxo-3,4-dihydrobenzo[d][1,2,3]triazin-6-yl)piperidine-4-carboxamide], the cytotoxic concentration (CC50) turned out to be 24.4 nM.

On to `CC1(C)C(NC(=O)c2ccc(-c3cnn(C4CCN(CC5CCN(C(=O)COc6ccc7nnn(C8CCC(=O)NC8=O)c(=O)c7c6)CC5)CC4)c3)cc2)C(C)(C)C1Oc1ccc(C#N)c(Cl)c1` (stereo not drawn) [Example 113, N-((1r,3r)-3-(3-chloro-4-cyanophenoxy)-2,2,4,4-tetramethylcyclobutyl)-4-(1-(1-((1-(2-((3-(2,6-dioxopiperidin-3-yl)-4-oxo-3,4-dihydrobenzo[d][1,2,3]triazin-6-yl)oxy)acetyl)piperidin-4-yl)methyl)piperidin-4-yl)-1H-pyrazol-4-yl)benzamide], for which the CC50 amounted to 30 nM.

`CC1(C)[C@H](NC(=O)c2cnc(N3CCN(CC4CCN(C(=O)C5CCN(c6ccc7nnn(C8CCC(=O)NC8=O)c(=O)c7c6)CC5)CC4)CC3)nc2)C(C)(C)[C@H]1Oc1ccc(C#N)c(Cl)c1` (stereo partly drawn) [Example 145, N-((1r,3r)-3-(3-chloro-4-cyanophenoxy)-2,2,4,4-tetramethylcyclobutyl)-2-(4-((1-(1-(3-(2,6-dioxopiperidin-3-yl)-4-oxo-3,4-dihydrobenzo[d][1,2,3]triazin-6-yl)piperidine-4-carbonyl)piperidin-4-yl)methyl)piperazin-1-yl)pyrimidine-5-carboxamide]: the CC50 was around 10 nM.

With `CC1(C)C(NC(=O)c2ccc(N3CCN(Cc4cn(C5CCN(c6ccc7nnn(C8CCC(=O)NC8=O)c(=O)c7c6)CC5)nn4)CC3)cc2)C(C)(C)C1Oc1ccc(C#N)c(Cl)c1` (stereo not drawn) [Example 105, N-((1r,3r)-3-(3-chloro-4-cyanophenoxy)-2,2,4,4-tetramethylcyclobutyl)-4-(4-((1-(1-(3-(2,6-dioxopiperidin-3-yl)-4-oxo-3,4-dihydrobenzo[d][1,2,3]triazin-6-yl)piperidin-4-yl)-1H-1,2,3-triazol-4-yl)methyl)piperazin-1-yl)benzamide], the CC50 amounted to 80.2 nM.

On to `CC1(C)C(NC(=O)c2ccc(N3CCN(CC4CCN(CCNC(=O)CNc5ccc6nnn(C7CCC(=O)NC7=O)c(=O)c6c5)CC4)CC3)cc2)C(C)(C)C1Oc1ccc(C#N)c(Cl)c1` (stereo not drawn) [Example 59, N-((1r,3r)-3-(3-chloro-4-cyanophenoxy)-2,2,4,4-tetramethylcyclobutyl)-4-(4-((1-(2-(2-((3-(2,6-dioxopiperidin-3-yl)-4-oxo-3,4-dihydrobenzo[d][1,2,3]triazin-6-yl)amino)acetamido)ethyl)piperidin-4-yl)methyl)piperazin-1-yl)benzamide], for which the CC50 is around 1000 nM.

As for `CC1(C)[C@H](NC(=O)c2ccc(N3CC4CN(CC5CCN(C(=O)C6CN(c7ccc8nnn(C9CCC(=O)NC9=O)c(=O)c8c7)C6)CC5)CC4C3)cc2)C(C)(C)[C@H]1Oc1ccc(C#N)c(Cl)c1` (stereo partly drawn) [Example 140, N-((1r,3r)-3-(3-chloro-4-cyanophenoxy)-2,2,4,4-tetramethylcyclobutyl)-4-(5-((1-(1-(3-(2,6-dioxopiperidin-3-yl)-4-oxo-3,4-dihydrobenzo[d][1,2,3]triazin-6-yl)azetidine-3-carbonyl)piperidin-4-yl)methyl)hexahydropyrrolo[3,4-c]pyrrol-2(1H)-yl)benzamide], the 50% cytotoxic concentration (CC50) came to 30 nM.

The CC50 is the concentration that lowers cell viability or growth by half.
